The record followed here is patent US20260215412A1, “AGROCHEMICAL FORMULATION” (priority 2023, published 2026).

The nature of data set [1]: Solubility of pydiflumetofen in solvents suitable for emulsion production. The format is physicochemical. From the text: The choice of solvent for an agrochemical EC formulation is important and dependent upon the individual active ingredient that is the solute. In addition, the choice of solvent for an emulsifiable concentrate formulation can have an impact on the physical stability, application properties, and biological performance of the agrochemical formulation. In this case the active ingredient is the fungicide pydiflumetofen or 3-difluoromethyl-1-methyl-1H-pyrazole-4-carboxylic acid methoxy-[1-methyl-2-(2,4,6-trichlorophenyl)-ethyl]-amide to give it its IUPAC name (the name “pydiflumetofen” is used herein interchangeably with the IUPAC name 3-difluoromethyl-1-methyl-1H-pyrazole-4-carboxylic acid methoxy-[1-methyl-2-(2,4,6-trichlorophenyl)-ethyl]-amide).

Data set [2] in a line: Emulsion stability / emulsion quality testing upon dilution. In kind it is physicochemical. To be noted: for suitability as emulsifier for EC formulations of pydiflumetofen: sole surfactant in the test formulations (solo surfactant screens); for emulsion quality of two-way blends: non-ionic surfactant combined with anionic surfactant B^an in two-way blends. The procedure:
Test sample of EC formulations of 3-difluoromethyl-1-methyl-1H-pyrazole-4-carboxylic acid methoxy-[1-methyl-2-(2,4,6-trichlorophenyl)-ethyl]-amide were diluted in standard water samples of known hardness (Table 5) in crow receivers, which were then incubated overnight at 5° C. and 30° C.
Emulsion quality was assessed visually after homogenising the samples through inversion, using a scale of 0 to 5 as shown in Table 7 below.
Further visual assessments were carried out 0.5, 2 and 24 hours post homogenisation and the volume of any cream or oil recorded. After 24 hours, the samples were re-homogenised and number of inversions required for re-emulsification was recorded and the samples were re-incubated at 5 or 30 (as appropriate) and a final visual assessment, including by microscopy was carried out.

As for `CON(C(=O)c1cn(C)nc1C(F)F)C(C)Cc1c(Cl)cc(Cl)cc1Cl` (centres unmarked) [pydiflumetofen, 3-difluoromethyl-1-methyl-1H-pyrazole-4-carboxylic acid methoxy-[1-methyl-2-(2,4,6-trichlorophenyl)-ethyl]-amide], the Solubility of pydiflumetofen at 25° C. % in data set [1] (solvent Acetophenone) came out at 17.3%; in data set [1] (solvent Dimethyl lactamide), 9.65%; in data set [1] (solvent Dowanol DPM) it was 3.77%; in data set [1] (solvent Ethyl lactate), 5.74%; in data set [1] (solvent Gamma butyrolactone), 14.7%; in data set [1] (solvent Methyl benzoate), 15.1%. In addition, the Solubility of pydiflumetofen at 25° C. % in data set [1] (solvent Octan-1-ol) was determined as 0.63%; in data set [1] (solvent Solvesso 200 ND/ULN), 5.85%; in data set [1] (solvent THFA (Tetrahydrofurfuryl acetate)), 9.7%; in data set [1] (solvent Tributyl phosphate), 6.18%; in data set [1] (solvent Triethyl phosphate), 8.82%; in data set [1] (solvent Trimethylcyclohexanone) it was 10.2%.
Regarding “Block copolymer of poyhrdroxystearic acid and polyalkylene glycol [C^ni]”, the “suitability as emulsifier for EC formulations of pydiflumetofen” value in data set [2] is on record as “most promising”.
As for Castor oil ethoxylate [A^ni], in data set [2], the “emulsion quality of two-way blends” value is reported as “better quality emulsions overall”.
For “POE (11)-synthetic primary C12/C15 alcohol [B^ni]”, in data set [2], the “emulsion quality of two-way blends” value was “better quality emulsions overall” and the “suitability as emulsifier for EC formulations of pydiflumetofen” value was “most promising”.
Turning to “Polyoxyethylene sorbitan monolaurate [D^ni]”, in data set [2], the “emulsion quality of two-way blends” value is listed as “better quality emulsions overall”.
